The text below walks through data of patent US8269014B2, “Thiophene analogues for the treatment or prevention of flavivirus infections” (Vertex Pharmaceuticals (Canada) Incorporated, priority 2006, dated 2012).

The test system of series [1] is HCV replicon cells (Huh-7 ET cells). Type of series: cell-based, human. The conditions noted are these: Ratio of CC50/IC50 in HCV replicon cells (Huh-7 ET cells); average TI when tested more than once. Background: A replicon is a self-replicating genome or part of one, used to study replication in cells.
In a further series the test system is CYP3A4. As to the kind of experiment: Induction in cultured human hepatocytes (CYP3A4 activity and mRNA). Format: in vitro ADME. The conditions noted are these: relative to compound E / other thiophene analogues.
Series [2] is described as follows: Stability in human and rat microsomes. The following applies: human and rat hepatic microsomes; relative to compound E / other thiophene analogues. Format: in vitro ADME. Here is the method: Incubations containing no NADPH and no UDPGA are used as controls. The compounds are incubated at 50 uM for 0 and 60 minutes. The reaction is stopped by the addition of an equal volume of acetonitrile. The mixture is centrifuged and the supernatant is analyzed by HPLC/UV or MS/MS. The percentage parent remaining corresponds to the area of the parent compound in the 60-minute incubation versus the area of the parent compound in a 0-minute incubation ×100.

In the case of `CC1CCC(C(=O)N(c2cc(-c3ccccc3)sc2C(=O)O)C(C)C)CC1` (stereo not shown) [A, reference compound], the TI entry in series [1] was “++ (++: 100-1000)”.

Consider `CC1CCC(C(=O)N(c2cc(-c3ccccc3)sc2C(=O)O)C2CCC(O)CC2)CC1` (stereo not shown) [B, reference compound], for which the TI entry in series [1] is listed as “++ (++: 100-1000)”.

`COC1CCC(N(C(=O)C2CCC(C)CC2)c2cc(-c3ccccc3)sc2C(=O)O)CC1` (stereo not shown) [C, reference compound]: in series [1], the TI result is recorded as “+ (+: <100)”.

With `CC(C)(C)C#Cc1cc(N(C(=O)[C@H]2CC[C@H](C)CC2)[C@H]2CC[C@H](O)CC2)c(C(=O)O)s1` [Compound 1, 5-(3,3-DIMETHYL-BUT-1-YNYL)-3-[(TRANS-4-HYDROXY-CYCLOHEXYL)-(TRANS-4-METHYL-CYCLOHEXANECARBONYL)-AMINO]-THIOPHENE-2-CARBOXYLIC ACID], the TI result in series [1] is listed as “++++++ (++++++: >6000)”. Further, in the series on CYP3A4, the “induction profile in human hepatocytes” value is recorded as “better”. Moreover, the microsome stability profile entry in series [2] is listed as “better”.

Regarding `CO[C@H]1CC[C@H](N(c2cc(C#CC(C)(C)C)sc2C(=O)O)C(=O)[C@H]2CC[C@H](C)CC2)CC1` [Compound 2, 5-(3,3-DIMETHYL-BUT-1-YNYL)-3-[(TRANS-4-METHOXY-CYCLOHEXYL)-(TRANS-4-METHYL-CYCLOHEXANECARBONYL)-AMINO]-THIOPHENE-2-CARBOXYLIC ACID], the TI entry in series [1] was “+++ (+++: 1000-2000)”. Also, in the series on CYP3A4, the “induction profile in human hepatocytes” value is given as “better”. The microsome stability profile result in series [2] is listed as “better”.

Consider `CC(C)(C)C#Cc1cc(N(C(=O)[C@H]2CC[C@H](C)CC2)[C@H]2CC[C@@H](n3cncn3)CC2)c(C(=O)O)s1` [Compound 3, 5-(3,3-DIMETHYL-BUT-1-YNYL)-3-[(TRANS-4-METHYL-CYCLOHEXANECARBONYL)-(CIS-4-[1,2,4]TRIAZOL-1-YL-CYCLOHEXYL)-AMINO]-THIOPHENE-2-CARBOXYLIC ACID], for which the TI result in series [1] is reported as “++++++ (++++++: >6000)”.

Turning to `CC(C)(C)C#Cc1cc(N(C(=O)[C@H]2CC[C@H](C)CC2)[C@H]2CC[C@H](n3cncn3)CC2)c(C(=O)O)s1` [Compound 4, 5-(3,3-DIMETHYL-BUT-1-YNYL)-3-[(TRANS-4-METHYL-CYCLOHEXANECARBONYL)-(TRANS-4-[1,2,4]TRIAZOL-1-YL-CYCLOHEXYL)-AMINO]-THIOPHENE-2-CARBOXYLIC ACID], the TI entry in series [1] is given as “++++ (++++: 2000-4000)”.

With `CC(C)(C)C#Cc1cc(N(C(=O)[C@H]2CC[C@H](C)CC2)[C@H]2CC[C@@H](O)CC2)c(C(=O)O)s1` [Compound 5, 5-(3,3-DIMETHYL-BUT-1-YNYL)-3-[(CIS-4-HYDROXY-CYCLOHEXYL)-(TRANS-4-METHYL-CYCLOHEXANECARBONYL)-AMINO]-THIOPHENE-2-CARBOXYLIC ACID], the TI result in series [1] is “++++++ (++++++: >6000)”.

Take `CC1CCC(C(=O)N(c2cc(C#CC(C)(C)C)sc2C(=O)O)C2CCC(n3ccnn3)CC2)CC1` (stereo not drawn) [Compound 7, 5-(3,3-DIMETHYL-BUT-1-YNYL)-3-[(TRANS-4-METHYL-CYCLOHEXANECARBONYL)-(4-CIS-[1,2,3]TRIAZOL-1-YL-CYCLOHEXYL)-AMINO]-THIOPHENE-2-CARBOXYLIC ACID]: in series [1], the TI result is “+++++ (+++++: 4000-6000)”.

For `CC(C)(C)C#Cc1cc(N(C(=O)[C@H]2CC[C@H](C)CC2)[C@H]2CC[C@H](n3ccnn3)CC2)c(C(=O)O)s1` [Compound 8, 5-(3,3-DIMETHYL-BUT-1-YNYL)-3-[(TRANS-4-METHYL-CYCLOHEXANECARBONYL)-(TRANS-4-[1,2,3]TRIAZOL-1-YL-CYCLOHEXYL)-AMINO]-THIOPHENE-2-CARBOXYLIC ACID], the TI entry in series [1] is on record as “++++++ (++++++: >6000)”.

Regarding `CC(C)(C)C#Cc1cc(N(C(=O)[C@H]2CC[C@H](C)CC2)[C@H]2CC[C@H](F)CC2)c(C(=O)O)s1` [Compound 9, 5-(3,3-DIMETHYL-BUT-1-YNYL)-3-[(TRANS-4-FLUORO-CYCLOHEXYL)-(TRANS-4-METHYL-CYCLOHEXANECARBONYL)-AMINO]-THIOPHENE-2-CARBOXYLIC ACID], the TI result in series [1] is on record as “++++++ (++++++: >6000)”.

Take `CC1CCC(C(=O)N(c2cc(C#CC(C)(C)C)sc2C(=O)O)C(C)C)CC1` (stereo not shown) [E, reference compound]: the TI entry in series [1] is listed as “+++ (+++: 1000-2000)”.

For the compound `CC1CCC(C(=O)N(c2cc(-c3ccccc3)sc2C(=O)O)C2CCC(n3ccnn3)CC2)CC1` (stereo not shown) [F, reference compound], the TI result in series [1] is “++ (++: 100-1000)”.

Regarding `CC1CCC(C(=O)N(c2cc(-c3ccccc3)sc2C(=O)O)C2CCC(n3cncn3)CC2)CC1` (stereo not shown) [G, reference compound], the TI entry in series [1] is “+++ (+++: 1000-2000)”.

For `CC1CCC(C(=O)N(c2cc(-c3ccccc3)sc2C(=O)O)C2CCC(F)CC2)CC1` (stereo not shown) [H, reference compound], the TI result in series [1] is “+ (+: <100)”.
